Results as given in patent US8563546B2, “Heterocyclic nitrogenous or oxygenous compounds with insecticidal activity formed from dialdehydes and their preparation and uses thereof” (East China University of Science and Technology, priority 2008, dated 2013).
Read-outs that look alike come from different tables or passages of the source.

What was measured:
Format in all cases: in vivo
Nilaparvata lugens = assay: Activity test for planthopper, spraying; conditions: for mortality at 500 ppm: Nilaparvata lugens, read-out: Planthopper Mortality (100%) 500 ppm
Description: (2) Activity Test for Planthopper (Nilaparvata lugens)
Planthopper, which belongs to Homoptera and has a piercing-sucking mouthpart, is a common insect for agricultural plant. Nilaparvata lugens was tested by the way of spraying.
Test method: the test compound was exactly formulated into a solution of acetone to final concentration of 500, 250, 100, 50, 25, 12.5, 6.25, 3.13, 1.57 and 0.79 ppm. The acetone aqueous solution was used as control. Each process was repeated for 3 tumblers (3 times). 2 mL of solution was sprayed uniformly to each cup by a mini manual sprayer. 10 Nilaparvata lugens were introduced to every sink 6 hours before spraying. Three series of experiments were conducted. The number of killed Nilaparvata lugens was counted after 24 hours to calculate the mortality using above mentioned formula.

Aphis craccivoral = assay: Activity test for cowpea aphids, immersing; conditions: for mortality at 500 ppm: Aphis, read-out: Cowpea Aphids Mortality (100%) 500 ppm
Description: (1) Activity Test for Cowpea Aphids (Aphis Craccivoral)
Aphis, which belongs to Homoptera and has a piercing-sucking mouthpart, is a common insect for agricultural plant. Aphis craccivoral was tested by the way of immersing.
Test method: exactly weighed various samples were independently added to N,N-dimethylformamide to form a 10 g/L stock solution. The mixture was diluted with 0.2 mL/L aqueous Triton X-100 solution to a concentration of 500 ppm After stably sucking on bean sprout, the adult aphis without wings together with bean sprout was dipped into 500 ppm dilution, taken out after 5 seconds, and the excess dilution was sucked out with bibulous paper and the adult aphis without wings was incubated in clean vessel at a constant temperature of 23° C. Each concentration was repeated for 3 times and the control group contained 0.2 mL/L aqueous Triton X-100 solution. The number of killed aphis was counted after 24 hours to calculate the mortality by the following formula: mortality(%)=(control alive aphis−treated alive aphis)/control alive aphis×100%.

Plutella Xylostella = assay: Activity test for diamondback moth, feeding immersed cabbage leaves; conditions: for mortality at 500 ppm: Plutella xylostella, read-out: Diamondback moth Mortality (100%) 500 ppm
Description: (4) Activity Test for Diamondback Moth (Plutella Xylostella)
Diamondback moth was tested by the way of feeding immersed leaves. Fresh cabbage leaves were immersed in above mentioned solution for 3 seconds and dried at room temperature and used to feed to the tested insects. Each process was repeated for 3 tumblers (3 times) while 10 Diamondback moths were tested in each experiment, while water was used as control. The number of killed Diamondback moth was counted after 24 hours to calculate the mortality using above mentioned formula.

[1] = system: Pseudaletia Separate Walker; assay: Activity test for armyworm, feeding immersed maize leaves; conditions: for mortality at 500 ppm: read-out: Armyworm Mortality (100%) 500 ppm
Description: (3) Activity Test for Armyworm (Pseudaletia Separate Walker)
Armyworm was tested by the way of feeding immersed leaves. The test compound was exactly formulated into a solution of acetone to concentration 500, 250, 100, 50, 25, 12.5, 6.25, 3.13 and 1.57 ppm. The acetone aqueous solution was used as control. Fresh maize leaves were immersed in the solution for 3 seconds and dried at room temperature and used to feed the tested insects. Each process was repeated for 3 times while 10 Armyworms were tested in each experiment. The number of killed Armyworms was counted after 24 hours to calculate the mortality using above mentioned formula.

[2] = 500 ppm, spraying, counted after 24 hours
[3] = 500 ppm, dipped 5 seconds, counted after 24 hours, 23° C.
[4] = 500 ppm, immersed cabbage leaves, counted after 24 hours
[5] = 500 ppm, immersed maize leaves, counted after 24 hours

Compound | mortality at 500 ppm (Nilaparvata lugens; [2]) | mortality at 500 ppm (Aphis craccivoral; [3]) | mortality at 500 ppm (Plutella Xylostella; [4]) | mortality at 500 ppm [1, 5] | mortality at 500 ppm (Nilaparvata lugens; 24 h) | mortality at 500 ppm (Aphis craccivoral; 24 h) | mortality at 500 ppm (Plutella Xylostella; 24 h) | mortality at 500 ppm ([1]; 24 h) | further results
N#CC1=C2N(Cc3ccc(Cl)nc3)CCN2C2CCC1O2 (stereo not shown) [Compound 64, 1-((6-chloropyridin-3-yl)methyl)-2,3,5,6,7,8-hexahydro-1H-5,8-epoxyimidazo[1,2-a]azepine-9-carbonitrile] | 56% | 96% | 100% | 100% | – | – | – | – | –
CCN(Cc1ccc(Cl)nc1)C(=N\C)/C(=C\C/C=C(\C(=N\C)N(CC)Cc1ccc(Cl)nc1)[N+](=O)[O-])[N+](=O)[O-] [Compound 37, N^1,N^7-bis((6-chloropyridin-3-yl)methyl)-N^1,N^7-diethyl-N^1′, N^7′-dimethyl-2,6-dinitrohepta-2,5-dienediamidine] | – | – | – | – | 100% | 100% | 100% | 100% | –
O=[N+]([O-])C1=C2N(CC3CCOC3)CCN2C2CCCC1O2 (stereo not shown) [Compound 80, 10-nitro-1-((tetrahydrofuran-3-yl)methyl)-1,2,3,5,6,7,8,9-octahydro-5,9-epoxyimidazo[1,2-a]azocine] | – | – | 100% | – | 100% | 100% | – | 100% | –
O=[N+]([O-])C1=C2N(Cc3ccc(Cl)nc3)CCCN2C2CCC1O2 (stereo not shown) [Compound 61, 1-((6-chloropyridin-3-yl)methyl)-10-nitro-1,2,3,4,6,7,8,9-octahydro-6,9-epoxypyrimido[1,2-a]azepine] | 75% | 65% | 35% | 76% | – | – | – | – | –
O=[N+]([O-])C1=C2N(Cc3cnc(Cl)s3)CCN2C2CCC1O2 (stereo not shown) [Compound 53, 1-((2-chlorothiazol-5-yl)methyl)-9-nitro-2,3,5,6,7,8-hexahydro-1H-5,8-epoxyimidazo[1,2-a]azepine] | 100% | 100% | 100% | 100% | – | – | – | – | –
O=[N+]([O-])/C(=C/C/C=C(\C1=NCCN1Cc1ccc(Cl)nc1)[N+](=O)[O-])C1=NCCN1Cc1ccc(Cl)nc1 [Compound 39] | – | – | – | – | 100% | 100% | 100% | 100% | –
COC(/C=C(\C1=NCCN1Cc1ccc(Cl)nc1)[N+](=O)[O-])/C(=C1\NCCN1Cc1ccc(Cl)nc1)[N+](=O)[O-] (stereo not shown) [Compound 14] | – | – | – | – | 100% | 100% | 100% | 100% | –
1-((6-chloropyridin-3-yl)methyl)-5-(1-((6-chloropyridin-3-yl) methyl)-1,4,5,6-tetrahydropyrimidin-2-yl)-1,5-dinitropenta-1,4-dienyl)-1,4,5,6-tetrahydropyrimidine [Compound 43] | – | – | – | – | – | – | – | – | Planthopper Mortality (100%) 500 ppm (Nilaparvata lugens; [2]): 87%; Cowpea Aphids Mortality (100%) 500 ppm (Aphis craccivoral; [3]): 78%; Diamondback moth Mortality (100%) 500 ppm (Plutella Xylostella; [4]): 96%; Armyworm Mortality (100%) 500 ppm [1, 5]: 100%
CCN(Cc1ccc(Cl)nc1)C1=C([N+](=O)[O-])C2CCC(O2)N1C (stereo not shown) [Compound 46, N-((6-chloropyridin-3-yl)methyl)-N-ethyl-2-methyl-4-nitro-8-oxa-2-aza-bicyclo[3.2.1]oct-3-en-3-amine] | 100% | 100% | 100% | 100% | – | – | – | – | –
O=[N+]([O-])/C(=C1/NCCN1Cc1ccc(Cl)nc1)C(O)/C=C(\C1=NCCN1Cc1ccc(Cl)nc1)[N+](=O)[O-] (stereo not shown) [Compound 13, 4-(1-((6-chloropyridin-3-yl)methyl)-4,5-dihydro-1H-imidazol-2-yl)-1-(1-((6-chloropyridin-3-yl)methyl)imidazolidin-2-ylidene)-1,4-dinitrobut-3-en-2-ol] | – | – | – | – | 85% | 78% | 100% | 100% | –
O=[N+]([O-])/C(=C/C/C=C(\C1=NCCN1Cc1cnc(Cl)s1)[N+](=O)[O-])C1=NCCN1Cc1cnc(Cl)s1 [Compound 41] | – | – | – | – | 100% | 100% | 100% | 100% | –
O=[N+]([O-])C1=C2N(Cc3ccc(Cl)nc3)CCN2C2CCCC1O2 (stereo not shown) [Compound 77, 1-((6-chloropyridin-3-yl)methyl)-10-nitro-1,2,3,5,6,7,8,9-octahydro-5,9-epoxyimidazo[1,2-a]azocine] | 100% | 100% | 100% | 100% | – | – | – | – | –
O=[N+]([O-])C1=C2N(Cc3ccc(Cl)nc3)CCN2C2CCC1O2 (stereo not shown) [Compound 52, 1-((6-chloropyridin-3-yl)methyl)-9-nitro-2,3,5,6,7,8-hexahydro-1H-5,8-epoxyimidazo[1,2-a]azepine] | 100% | 100% | 100% | 100% | – | – | – | – | –
